Data from patent US20090069319A1, “IMIDAZOPYRIDINE ANALOGS AND THEIR USE AS AGONISTS OF THE WNT-BETA-CATENIN CELLULAR MESSAGING SYSTEM” (Wyeth, priority 2007, published 2009).

Assay: Functional Dkk1-LRP5-TCF-Luciferase Assay in U2OS Cells (table columns: A=MAX FOLD Induction/DMSO CONTROL; B=fold induction @ 2.0 uM; C=fold induction @ 20.0 uM)
Assay type: cell-based, Human
Settings: Homo sapiens, U2OS; for fold induction at 2 µM: 2.0 uM compound; for fold induction at 20 µM: 20.0 uM compound
Procedure: Biological Evaluation—Functional Dkk1-LRP5-TCF-Luciferase Assay in U2OS Cells
U2OS Human Bone derived cells (Osteosarcoma) are grown in McCoy's 5A Medium (Modified), with L-glutamine (GIBCO Cat No. 16600-082)+1% Pen-Strep+5% FBS) plated at 1×10^7 cells/T175 cm flask. The next day, the cells are co-transfected overnight with the following plasmids: (a) Test reporter (16×TCF-TK-FireFly-Luci), (b) Internal Control Reporter (TK-Renilla-Luci), (c) Wnt3a and (d) Dkk1. GIBCO's Lipofectamine 2000 and OptiMEM were used for the transfection. After a minimum of 4 hr of transfection at 37° C., the plasmid-transfected cells are trypsinized, counted, and suspended in freezing medium (95% FBS+5% DMSO). The reporter cells are frozen at 1×10^7/ml concentrations, aliquoted into 0.5 ml or 2.5 ml/tube and stored at −70° C.
The following day, test compounds are added under HTS setup by Plate Track into 384 well plates (white, TC treated, Falcon plate) such that the final concentration of the compounds in 20 μL/well cell will be 5 μg/ml (final concentration of DMSO=0.25% and final compound concentration=20 μM). Vials of frozen reporter cells are thawed by warming the vial in a 37° C. water bath for 60-120 seconds with some shaking until the cells formed a suspension. The thawed cells are transferred into a cold 50 ml (or larger) tube and mixed well by gentle pipetting. The appropriate amount of cold Phenol Red Free RPMI medium-1640 (GIBCO, Cat # 11835-030) with L-glutamine is added, both with ˜5% FBS (GIBCO-BRL, Cat. # 16000-044), so that 20 μl of the final cell suspension will contain ˜5,000 cells. The cell dilution is done such that the final concentration of FBS was ˜5%. Diluted cells (20 μl) are added into each well in a 384 well plate. The plate is incubated at 37° C. under 5% CO2 for ˜20 h. Bright-Glo substrate, 2.5 μl/well is added, and the Fire Fly Luciferase is measured using VLUX (60 second exposure) immediately after the substrate was added. Test compounds are dissolved in DMSO (100%) and added to specified wells. Raw luciferase signal data obtained as relative luminescence units (RLUs) for the test compounds are normalized to the signal of the mean of the sample reporter cell plate with DMSO.
Active compounds have TCF-luciferase ratios of 2.5 fold or greater over DMSO. All compounds show a signal increase of at least 10% compared to a signal with only DMSO added.
A=MAX FOLD Induction/DMSO CONTROL
B=TCF ACTIVITY/DMSO CONTROL Fold induction @ 2.0 uM C=TCF ACTIVITY/DMSO CONTROL Fold induction @ 20.0 uM

Row | Structure (SMILES) | fold induction at 2 µM | fold induction at 20 µM
1 | Fc1ccc(-c2nc3c(-c4ccc5ccccc5c4)ccnc3n2C2CCNCC2)c(C(F)(F)F)c1 [2-[4-fluoro-2-(trifluoromethyl)phenyl]-7-(2-naphthyl)-3-piperidin-4-yl-3H-imidazo[4,5-b]pyridine] | 1.11 | –
2 | Brc1cccc(-c2nc3c(-c4ccc5ccccc5c4)ccnc3n2C2CCNCC2)c1 [2-(3-bromophenyl)-7-(2-naphthyl)-3-piperidin-4-yl-3H-imidazo[4,5-b]pyridine] | 1.52 | –
3 | c1ccc2cc(-c3cnc4c(c3)nc(-c3ccnc5ccccc35)n4C3CCNCC3)ccc2c1 [4-[6-(2-naphthyl)-3-piperidin-4-yl-3H-imidazo[4,5-b]pyridin-2-yl]quinoline] | 1.81 | –
4 | c1ccc(-c2nc3cc(-c4ccc5ccccc5c4)cnc3n2C2CCNCC2)nc1 [6-(2-naphthyl)-3-piperidin-4-yl-2-pyridin-2-yl-3H-imidazo[4,5-b]pyridine] | 1.6 | 0.005
5 | Brc1ccc(-c2nc3c(-c4ccc5ccccc5c4)ccnc3n2C2CCNCC2)cc1 [2-(4-bromophenyl)-7-(2-naphthyl)-3-piperidin-4-yl-3H-imidazo[4,5-b]pyridine] | 1.23 | –
6 | FC(F)(F)Oc1ccc(-c2nc3c(-c4ccc5ccccc5c4)ccnc3n2C2CCNCC2)cc1 [7-(2-naphthyl)-3-piperidin-4-yl-2-[4-(trifluoromethoxy)phenyl]-3H-imidazo[4,5-b]pyridine] | 1.51 | –
7 | c1ccc2cc(-c3ccnc4c3nc(-c3cccc5cccnc35)n4C3CCNCC3)ccc2c1 [8-[7-(2-naphthyl)-3-piperidin-4-yl-3H-imidazo[4,5-b]pyridin-2-yl]quinoline] | – | 1.01
8 | COc1ncccc1-c1nc2c(-c3ccc4ccccc4c3)ccnc2n1C1CCNCC1 [2-(2-methoxypyridin-3-yl)-7-(2-naphthyl)-3-piperidin-4-yl-3H-imidazo[4,5-b]pyridine] | 1.5 | –
9 | c1ccc(Oc2cccc(-c3nc4c(-c5ccc6ccccc6c5)ccnc4n3C3CCNCC3)c2)cc1 [7-(2-naphthyl)-2-(3-phenoxyphenyl)-3-piperidin-4-yl-3H-imidazo[4,5-b]pyridine] | 1.4 | –
10 | c1ccc2cc(-c3cnc4c(c3)nc(-c3cccc5ccccc35)n4C3CCNCC3)ccc2c1 [2-(1-naphthyl)-6-(2-naphthyl)-3-piperidin-4-yl-3H-imidazo[4,5-b]pyridine] | 1.11 | –
11 | FC(F)(F)c1ccc(C(F)(F)F)c(-c2nc3c(-c4ccc5ccccc5c4)ccnc3n2C2CCNCC2)c1 [2-[2,5-bis(trifluoromethyl)phenyl]-7-(2-naphthyl)-3-piperidin-4-yl-3H-imidazo[4,5-b]pyridine] | 1.45 | –
12 | FC(F)(F)c1cccc(-c2nc3c(-c4ccc5ccccc5c4)ccnc3n2C2CCNCC2)c1 [7-(2-naphthyl)-3-piperidin-4-yl-2-[3-(trifluoromethyl)phenyl]-3H-imidazo[4,5-b]pyridine] | 1.54 | –
13 | c1csc(-c2nc3c(-c4ccc5ccccc5c4)ccnc3n2C2CCNCC2)c1 [7-(2-naphthyl)-3-piperidin-4-yl-2-(2-thienyl)-3H-imidazo[4,5-b]pyridine] | 1.22 | 0.04
14 | CCn1cnc(-c2nc3c(-c4ccc5ccccc5c4)ccnc3n2C2CCNCC2)c1C [2-(1-ethyl-5-methyl-1H-imidazol-4-yl)-7-(2-naphthyl)-3-piperidin-4-yl-3H-imidazo[4,5-b]pyridine] | 1.88 | –
15 | O=[N+]([O-])c1ccc(-c2nc3c(-c4ccc5ccccc5c4)ccnc3n2C2CCNCC2)cc1 [7-(2-naphthyl)-2-(4-nitrophenyl)-3-piperidin-4-yl-3H-imidazo[4,5-b]pyridine] | 1.42 | –
16 | [O-][n+]1ccc(-c2nc3c(-c4ccc5ccccc5c4)ccnc3n2C2CCNCC2)cc1 [7-(2-naphthyl)-2-(1-oxidopyridin-4-yl)-3-piperidin-4-yl-3H-imidazo[4,5-b]pyridine] | 1.45 | 0.06
17 | Clc1ccc(-c2nc3c(-c4ccc5ccccc5c4)ccnc3n2C2CCNCC2)cc1 [2-(4-chlorophenyl)-7-(2-naphthyl)-3-piperidin-4-yl-3H-imidazo[4,5-b]pyridine] | 1.21 | –

Row | Structure (SMILES) | fold induction at 2 µM | fold induction at 20 µM
18 | Cc1ccc(CCn2cnc3c(-c4ccc5ccccc5c4)ccnc32)cc1 [3-[2-(4-methylphenyl)ethyl]-7-(2-naphthyl)-3H-imidazo[4,5-b]pyridine] | 0.76 | 0.98
19 | FC(F)(F)Oc1cccc(-c2nc3c(-c4ccc5ccccc5c4)ccnc3n2C2CCNCC2)c1 [7-(2-naphthyl)-3-piperidin-4-yl-2-[3-(trifluoromethoxy)phenyl]-3H-imidazo[4,5-b]pyridine] | 1.52 | –
20 | Cc1ccc2[nH]cc(-c3nc4c(-c5ccc6ccccc6c5)ccnc4n3C3CCNCC3)c2c1 [2-(5-methyl-1H-indol-3-yl)-7-(2-naphthyl)-3-piperidin-4-yl-3H-imidazo[4,5-b]pyridine] | 1.92 | –
21 | Cc1cc(-c2nc3c(-c4ccc5ccccc5c4)ccnc3n2C2CCNCC2)oc1C [2-(4,5-dimethyl-2-furyl)-7-(2-naphthyl)-3-piperidin-4-yl-3H-imidazo[4,5-b]pyridine] | 1.54 | –
22 | Cn1c(-c2nc3cc(-c4ccc5ccccc5c4)cnc3n2C2CCNCC2)cc2ccccc21 [2-(1-methyl-1H-indol-2-yl)-6-(2-naphthyl)-3-piperidin-4-yl-3H-imidazo[4,5-b]pyridine] | 1.05 | –
23 | O=C(NC1CCCCC1)N1CCC(n2cnc3c(-c4ccc5ccccc5c4)ccnc32)CC1 [N-cyclohexyl-4-[7-(2-naphthyl)-3H-imidazo[4,5-b]pyridin-3-yl]piperidine-1-carboxamide] | 0.97 | 0.03
24 | CC(C)(C)c1ccc(-c2nc3c(-c4ccc5ccccc5c4)ccnc3n2C2CCNCC2)cc1 [2-(4-tert-butylphenyl)-7-(2-naphthyl)-3-piperidin-4-yl-3H-imidazo[4,5-b]pyridine] | 1.88 | –
25 | Cn1ccnc1-c1nc2c(-c3ccc4ccccc4c3)ccnc2n1C1CCNCC1 [2-(1-methyl-1H-imidazol-2-yl)-7-(2-naphthyl)-3-piperidin-4-yl-3H-imidazo[4,5-b]pyridine] | 1.84 | –
26 | c1ccc2cc(-c3ccnc4c3nc(-c3cc5ccccc5s3)n4C3CCNCC3)ccc2c1 [2-(1-benzothien-2-yl)-7-(2-naphthyl)-3-piperidin-4-yl-3H-imidazo[4,5-b]pyridine] | 1.02 | –
27 | Cn1c(=O)n(C2CCNCC2)c2nccc(-c3ccc4ccccc4c3)c21 [1-methyl-7-(2-naphthyl)-3-piperidin-4-yl-1,3-dihydro-2H-imidazo[4,5-b]pyridin-2-one] | 1.07 | –
28 | O=c1[nH]c2c(-c3ccc4ccccc4c3)ccnc2n1C1CCNCC1 [7-(2-naphthyl)-3-piperidin-4-yl-1,3-dihydro-2H-imidazo[4,5-b]pyridin-2-one] | 1.29 | 0.04
29 | CCc1nc2c(-c3ccc4ccccc4c3)ccnc2n1C1CCNCC1 [2-ethyl-7-(2-naphthyl)-3-piperidin-4-yl-3H-imidazo[4,5-b]pyridine] | 1.39 | –
30 | Cc1cn(-c2ccccc2)c(Cl)c1-c1nc2c(-c3ccc4ccccc4c3)ccnc2n1C1CCNCC1 [2-(2-chloro-4-methyl-1-phenyl-1H-pyrrol-3-yl)-7-(2-naphthyl)-3-piperidin-4-yl-3H-imidazo[4,5-b]pyridine] | 1.48 | –
31 | Fc1ccc(-c2nc3cc(-c4ccc5ccccc5c4)cnc3n2C2CCNCC2)c(F)c1 [2-(2,4-difluorophenyl)-6-(2-naphthyl)-3-piperidin-4-yl-3H-imidazo[4,5-b]pyridine] | 1.22 | –
32 | Fc1ccccc1-c1nc2c(-c3ccc4ccccc4c3)ccnc2n1C1CCNCC1 [2-(2-fluorophenyl)-7-(2-naphthyl)-3-piperidin-4-yl-3H-imidazo[4,5-b]pyridine] | 1.29 | –
33 | FC(F)(F)c1ccc(-c2nc3c(-c4ccc5ccccc5c4)ccnc3n2C2CCNCC2)cc1 [7-(2-naphthyl)-3-piperidin-4-yl-2-[4-(trifluoromethyl)phenyl]-3H-imidazo[4,5-b]pyridine] | 1.28 | –
34 | c1ccc(CN2CCC(n3cnc4c(-c5ccc6ccccc6c5)ccnc43)CC2)cc1 [3-(1-benzylpiperidin-4-yl)-7-(2-naphthyl)-3H-imidazo[4,5-b]pyridine] | 0.84 | 0.08
